pIC50: −log10 of the molar value. The source made the active and inactive calls.
Assays:
[1] = molecular target: Sphingosine 1-phosphate receptor 2 (Homo sapiens, UniProt O95136); experiment: Dose Response Cell Based Assay for Antagonists of the S1P2 Receptor. [Related pubchem assays: 856, 736 ]; type: functional
[2] = molecular target: T1, Kappa-type opioid receptor (Homo sapiens, UniProt P41145); type: functional
[3] = molecular target: Beta-galactosidase (Escherichia coli, UniProt Q8VNN2); type: functional
[4] = molecular target: T1, Kappa-type opioid receptor; type: functional; remark: listed apart in the source
[5] = molecular target: T2, Heat shock factor protein 1 (Mus musculus, UniProt P38532); experiment: HSF1 potentiators in luciferase reporter cells, confirmation, cell-based, NIH3T3, luminescence, dose retest (AID 435004); type: functional;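 also: stress induced by proteasome inhibitor MG132 added 30 min after compound; luciferase reporter driven by HSF1 response element in NIH3T3 cells; actives raise luminescence as potentiators of the MG132 stress response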
T2 sequence (P38532 whole entry): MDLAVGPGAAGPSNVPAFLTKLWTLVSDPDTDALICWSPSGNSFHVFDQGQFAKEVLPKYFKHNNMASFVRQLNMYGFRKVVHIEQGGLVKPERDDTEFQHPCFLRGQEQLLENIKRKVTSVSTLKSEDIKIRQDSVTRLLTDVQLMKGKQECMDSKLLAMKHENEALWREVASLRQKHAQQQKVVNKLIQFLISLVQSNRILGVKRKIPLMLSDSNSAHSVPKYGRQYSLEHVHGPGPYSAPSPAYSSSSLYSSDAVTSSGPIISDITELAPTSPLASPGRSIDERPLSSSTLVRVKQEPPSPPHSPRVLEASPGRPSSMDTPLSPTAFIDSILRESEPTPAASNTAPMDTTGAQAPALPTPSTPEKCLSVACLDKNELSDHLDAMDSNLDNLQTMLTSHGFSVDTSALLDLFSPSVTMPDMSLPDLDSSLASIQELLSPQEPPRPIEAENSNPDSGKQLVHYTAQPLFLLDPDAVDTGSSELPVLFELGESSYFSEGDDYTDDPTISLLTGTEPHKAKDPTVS

[6] = molecular target: Heat shock protein HSP 90-alpha (Homo sapiens, UniProt P07900); type: functional, organism-based
[7] = molecular target: Protein Rev (Human immunodeficiency virus type 1 group M subtype B (isolate HXB2)(HIV-1), UniProt P04618); experiment: inhibitors of Rev binding to RRE RNA, dose response, biochemical, fluorescence polarization, HIV-1 (AID 434976); parameters: species or system Human immunodeficiency virus 1
[8] = molecular target: Female germline-specific tumor suppressor gld-1 (Caenorhabditis elegans, UniProt Q17339); experiment: inhibitors of GLD-1 binding to TGE RNA, dose response, biochemical, fluorescence polarization, C. elegans (AID 2802);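 also: fluorescence polarization of labeled TGE RNA bound by purified gld-1 protein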
[9] = molecular target: T3, Endoribonuclease toxin MazF (Escherichia coli K-12, UniProt P0AE70); experiment: MazF toxin RNase activators, dose response, biochemical, fluorescence, single-stranded RNA substrate, uHTS hits (AID 588481); type: functional
T3 sequence (P0AE70 whole entry): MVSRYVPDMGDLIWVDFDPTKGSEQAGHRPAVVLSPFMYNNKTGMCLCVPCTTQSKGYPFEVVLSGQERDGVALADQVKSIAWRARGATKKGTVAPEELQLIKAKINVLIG

[10] = molecular target: T3, Endoribonuclease toxin MazF; experiment: fluorescent RNA oligo signal without MazF, dose response, counter-screen for MazEF activator project, biochemical, fluorescence, single-stranded RNase substrate (AID 588502); type: functional
[11] = molecular target: T4, SUMO-activating enzyme (Homo sapiens, UniProt Q9UBT2); experiment: SUMOylation inhibitor hit validation, confirmation, SUMOylation inhibitor project, biochemical, AlphaScreen (AID 2018); type: functional
[12] = molecular target: T4, SUMO-activating enzyme; experiment: inhibitors of in vitro SUMOylation cascade, primary screen, biochemical, HTRF, uHTS (AID 2006); type: protein-complex assay
[13] = molecular target: Induced myeloid leukemia cell differentiation protein Mcl-1 (Homo sapiens, UniProt Q07820); type: functional
Chain of Induced myeloid leukemia cell differentiation protein Mcl-1 (Q07820 whole entry): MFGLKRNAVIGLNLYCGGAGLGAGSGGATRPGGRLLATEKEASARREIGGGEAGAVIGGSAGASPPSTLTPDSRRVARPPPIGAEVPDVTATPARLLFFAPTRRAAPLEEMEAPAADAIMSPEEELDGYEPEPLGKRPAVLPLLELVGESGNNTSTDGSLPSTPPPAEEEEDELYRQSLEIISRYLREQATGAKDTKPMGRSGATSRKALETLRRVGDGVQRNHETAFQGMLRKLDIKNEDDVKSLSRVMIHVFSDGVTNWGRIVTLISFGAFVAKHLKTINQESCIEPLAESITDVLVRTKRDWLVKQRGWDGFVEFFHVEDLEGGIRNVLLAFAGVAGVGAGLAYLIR

T4 sequence (Q9UBE0 whole entry): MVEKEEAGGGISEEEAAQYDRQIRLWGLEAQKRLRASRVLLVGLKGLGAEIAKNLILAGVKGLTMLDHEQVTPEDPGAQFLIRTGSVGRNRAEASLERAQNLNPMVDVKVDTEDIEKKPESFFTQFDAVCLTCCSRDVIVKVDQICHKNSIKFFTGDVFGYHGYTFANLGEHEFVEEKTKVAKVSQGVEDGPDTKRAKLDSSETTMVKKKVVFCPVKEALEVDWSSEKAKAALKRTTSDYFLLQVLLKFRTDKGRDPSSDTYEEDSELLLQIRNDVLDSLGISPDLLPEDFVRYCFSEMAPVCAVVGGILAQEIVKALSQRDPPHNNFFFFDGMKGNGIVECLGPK
T4 sequence (Q9UBT2 whole entry): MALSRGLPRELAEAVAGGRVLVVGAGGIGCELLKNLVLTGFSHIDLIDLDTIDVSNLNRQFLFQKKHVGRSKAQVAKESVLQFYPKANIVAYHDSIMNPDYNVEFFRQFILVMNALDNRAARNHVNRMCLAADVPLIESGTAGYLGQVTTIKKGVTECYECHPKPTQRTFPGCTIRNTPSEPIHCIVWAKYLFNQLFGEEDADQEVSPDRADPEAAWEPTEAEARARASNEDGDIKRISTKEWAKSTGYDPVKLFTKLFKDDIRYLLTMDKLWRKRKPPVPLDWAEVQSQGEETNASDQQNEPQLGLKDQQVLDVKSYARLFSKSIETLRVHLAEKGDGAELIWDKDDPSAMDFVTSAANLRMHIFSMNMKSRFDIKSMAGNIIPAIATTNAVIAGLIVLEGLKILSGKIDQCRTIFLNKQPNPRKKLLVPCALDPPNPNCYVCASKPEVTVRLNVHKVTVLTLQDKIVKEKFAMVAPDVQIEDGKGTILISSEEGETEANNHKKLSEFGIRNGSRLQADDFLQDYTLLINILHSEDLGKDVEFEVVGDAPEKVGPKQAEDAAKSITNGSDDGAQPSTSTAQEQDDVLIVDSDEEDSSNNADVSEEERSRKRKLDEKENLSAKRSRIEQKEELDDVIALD
T1 sequence (P41145 whole entry): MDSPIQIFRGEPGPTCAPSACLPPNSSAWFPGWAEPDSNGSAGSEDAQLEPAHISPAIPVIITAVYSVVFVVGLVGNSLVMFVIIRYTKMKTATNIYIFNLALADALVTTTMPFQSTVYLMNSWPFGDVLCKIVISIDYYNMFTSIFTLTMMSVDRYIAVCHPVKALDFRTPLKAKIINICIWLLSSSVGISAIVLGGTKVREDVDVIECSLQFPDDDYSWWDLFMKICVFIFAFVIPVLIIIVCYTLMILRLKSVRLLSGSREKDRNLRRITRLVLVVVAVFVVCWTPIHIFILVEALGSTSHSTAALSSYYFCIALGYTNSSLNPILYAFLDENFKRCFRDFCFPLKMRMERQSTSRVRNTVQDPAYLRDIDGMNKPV
Chain of Protein Rev (P04618 whole entry): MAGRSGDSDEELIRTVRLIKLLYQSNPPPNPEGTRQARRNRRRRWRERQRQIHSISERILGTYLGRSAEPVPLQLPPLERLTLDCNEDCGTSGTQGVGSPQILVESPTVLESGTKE
Chain of Sphingosine 1-phosphate receptor 2 (O95136 whole entry): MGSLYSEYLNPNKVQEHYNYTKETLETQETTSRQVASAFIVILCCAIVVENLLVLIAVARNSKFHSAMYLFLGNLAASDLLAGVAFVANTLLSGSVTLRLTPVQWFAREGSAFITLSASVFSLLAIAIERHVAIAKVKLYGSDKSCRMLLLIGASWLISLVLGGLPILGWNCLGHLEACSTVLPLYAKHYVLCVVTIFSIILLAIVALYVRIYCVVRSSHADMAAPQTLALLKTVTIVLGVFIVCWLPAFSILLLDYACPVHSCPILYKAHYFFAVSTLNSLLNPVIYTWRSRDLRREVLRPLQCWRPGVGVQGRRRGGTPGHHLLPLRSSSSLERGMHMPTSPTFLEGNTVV
Chain of Female germline-specific tumor suppressor gld-1 (Q17339 whole entry): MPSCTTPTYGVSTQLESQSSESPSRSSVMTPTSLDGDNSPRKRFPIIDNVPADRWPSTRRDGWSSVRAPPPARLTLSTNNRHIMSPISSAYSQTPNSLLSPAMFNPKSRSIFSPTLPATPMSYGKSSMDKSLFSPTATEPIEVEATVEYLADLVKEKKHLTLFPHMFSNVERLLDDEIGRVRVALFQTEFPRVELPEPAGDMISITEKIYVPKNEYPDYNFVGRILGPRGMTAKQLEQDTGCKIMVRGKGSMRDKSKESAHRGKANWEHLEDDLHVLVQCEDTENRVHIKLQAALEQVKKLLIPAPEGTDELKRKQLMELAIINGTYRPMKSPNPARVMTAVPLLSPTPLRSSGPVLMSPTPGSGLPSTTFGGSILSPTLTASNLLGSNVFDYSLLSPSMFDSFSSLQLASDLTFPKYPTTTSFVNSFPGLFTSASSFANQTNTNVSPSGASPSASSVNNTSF
Chain of Beta-galactosidase (Q8VNN2 whole entry): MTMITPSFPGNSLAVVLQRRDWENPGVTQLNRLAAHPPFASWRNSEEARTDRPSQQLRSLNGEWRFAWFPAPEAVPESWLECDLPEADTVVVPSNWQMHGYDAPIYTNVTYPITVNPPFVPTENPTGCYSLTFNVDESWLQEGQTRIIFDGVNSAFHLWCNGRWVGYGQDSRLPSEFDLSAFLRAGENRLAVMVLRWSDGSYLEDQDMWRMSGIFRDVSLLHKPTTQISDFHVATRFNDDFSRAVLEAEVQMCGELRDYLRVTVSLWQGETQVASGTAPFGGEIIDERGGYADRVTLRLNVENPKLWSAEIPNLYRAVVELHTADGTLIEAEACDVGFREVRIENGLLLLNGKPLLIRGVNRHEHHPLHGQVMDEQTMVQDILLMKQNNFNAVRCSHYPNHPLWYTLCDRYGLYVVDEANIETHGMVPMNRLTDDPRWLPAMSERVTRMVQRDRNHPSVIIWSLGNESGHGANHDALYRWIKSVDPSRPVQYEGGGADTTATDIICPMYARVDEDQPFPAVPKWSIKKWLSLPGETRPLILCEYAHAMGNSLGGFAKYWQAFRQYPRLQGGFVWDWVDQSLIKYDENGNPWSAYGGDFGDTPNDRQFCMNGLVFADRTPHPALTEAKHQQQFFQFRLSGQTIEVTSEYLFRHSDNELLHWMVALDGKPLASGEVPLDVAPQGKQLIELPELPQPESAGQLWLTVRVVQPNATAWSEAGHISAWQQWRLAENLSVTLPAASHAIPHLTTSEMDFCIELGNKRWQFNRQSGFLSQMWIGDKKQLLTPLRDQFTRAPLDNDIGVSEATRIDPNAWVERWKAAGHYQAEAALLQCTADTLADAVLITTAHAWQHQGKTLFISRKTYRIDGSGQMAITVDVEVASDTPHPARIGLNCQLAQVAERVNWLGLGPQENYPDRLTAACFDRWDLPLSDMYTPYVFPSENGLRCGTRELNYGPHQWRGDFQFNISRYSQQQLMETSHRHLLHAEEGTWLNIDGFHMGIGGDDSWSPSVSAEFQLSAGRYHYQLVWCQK

In the case of `O=C(C#Cc1cccc([N+](=O)[O-])c1)c1ccccc1`, the IC50 [1] was 3.69 µM (active), the IC50 [2] was 22.8 µM (inactive) and the EC50 [3] was > 31.5 µM (inactive). For the same molecule, the pIC50 [4] was less than 4.49, the EC50 [5] was 1.08 µM (inconclusive) and the AC50 [6] was 592 nM (active).

With `COc1ccc(N2CCCC2)c(NC(=O)c2ccc(Br)o2)c1` the IC50 [7] was > 75.4 µM (not active), the IC50 [8] was 21.3 µM (inactive) and the EC50 [9] was > 99 µM (inactive). The EC50 [10] was > 99 µM (inactive).

In the case of `Cc1cc(=O)oc2cc(OCc3ccc(C(=O)OCC(=O)Nc4ccc(N(C)C)cc4)cc3)ccc12`, the IC50 [11] was 36.3 µM (active), the IC50 [12] was 22.1 µM (active) and the IC50 [13] was 6.17 µM (active).

Reference: ChEMBL document CHEMBL1201862, “PubChem BioAssay data set” (2004)
